Results taken from paper PMC9283466, “In silico identification of two peptides with antibacterial activity against multidrug-resistant Staphylococcus aureus” (NPJ Biofilms and Microbiomes, 2022).
Values after ≈ are worked out from the molar mass of the structure shown. Bridge positions count the residues as written; N and C are the ends. Peptide text beside a SMILES is read from it.

Experiments:
[1] = test system: MRSA USA300 cytoplasmic membrane; assay type: cell-based, Staphylococcus aureus; conditions: for EC50 of membrane permeabilisation: USA300, 3 h
Procedure: Permeabilisation of the bacterial cytoplasmic membrane by HG2 and HG4 peptide was evaluated using the cell-impermeable DNA probe propidium iodide[14],[40]. Logarithmic-phase bacterial suspension of MRSA USA300 was prepared by diluting overnight cultures in fresh MHB (1 in 10 dilutions), incubated (3 h; 37 °C; 200 rpm), and pelleted by centrifugation (5 min; 3000×g). The bacterial cell pellet was then resuspended in sterile PBS at ~10^9 bacteria/ml. Propidium iodide (at 1 mg/ml, Sigma-Aldrich) was added to the bacterial suspension at a final concentration of 60 µM. This suspension (100 µl) was then transferred into black 96-well plates already containing 100 µl of serially diluted HG2 or HG4 peptide in PBS. Kinetics of fluorescence variations (excitation at 530 nm/emission at 590 nm) were then recorded using a microplate reader for a duration of 80 min with incubation at 37 °C. Cetyl trimethylammonium bromide (CTAB) (at 300 µM) served as positive control giving 100% permeabilisation. The permeabilisation effect of HG2 and HG4 were expressed as a percentage of total permeabilisation.

A. baumannii 515785 = assay: microbe, parasite or virus in culture; assay type: cell-based, Acinetobacter baumannii; conditions: 515785
Procedure: (§1) To determine the antimicrobial activity of the new antimicrobial peptides, HG2 and HG4, their minimum inhibitory concentrations (MICs) were determined by broth microdilution method[51] in cation adjusted Mueller Hinton broth (MHB) following the International Organisation for Standardisation (ISO) 20776-1 standard for MIC testing using a final bacterial inoculum of 5 × 10^5 CFU/ml[52]. […] The peptides dissolved in sterile distilled water were added to bacteria culture and incubated overnight at appropriate conditions. The MICs of the peptides and comparator antibiotics were recorded after 18–24 h. The minimum bactericidal concentrations (MBCs) were also determined and were taken as the lowest concentration of the antimicrobial that prevented the growth of bacterial cells after the subculture of cells (from MIC treatment) onto antibiotic-free media.

A. baumannii 515908 = assay: microbe, parasite or virus in culture; assay type: cell-based, Acinetobacter baumannii; conditions: 515908
Procedure: as §1

A. baumannii 515722 = assay: microbe, parasite or virus in culture; assay type: cell-based, Acinetobacter baumannii; conditions: 515722
Procedure: as §1

[2] = test system: A. baumannii (IMI, MER resistant; strain ID not given); assay: microbe, parasite or virus in culture; assay type: cell-based, Acinetobacter baumannii; conditions: MER resistant, no strain ID printed
Procedure: as §1

[3] = Peptide-lipid interaction and insertion, lipid monolayer; assay type: binding, Staphylococcus aureus; conditions: MRSA extract; initial surface pressure 30+/-0.5 mN/m
Procedure: Peptide–lipid interaction was measured using a lipid monolayer formed at the air:water interface with total lipid extracts and pure lipids. Total lipids were extracted from overnight cultures of MRSA or human erythrocytes using the Folch extraction procedure[14],[40]. Extracted total lipids were dried, re-solubilised in chloroform:methanol (2:1, v/v) and stored at −20 °C under nitrogen. […] The variation of the surface pressure caused by peptide insertion was then continuously monitored using a fully automated microtensiometer (µTROUGH SX, Kibron Inc, Finland) until it reached equilibrium (maximal surface pressure increase is usually obtained after 15–25 min). […] In other experiments, the critical pressure of insertion of HG2 or HG4 in the total lipid extracts and pure lipids was measured as follows[14],[56]. Briefly, in these experiments, the initial pressure of the lipid monolayer was set up at different values (between 10 and 30 mN/m) and the variation of pressure caused by the injection of the peptide was measured. […] All experiments were carried out in a controlled atmosphere at 20 ± 1 °C and data were analyzed using the Firmware 2.5 programme (Kibron Inc.). The accuracy of the system under our experimental conditions was determined to be ±0.25 mN/m for surface pressure measurements.

[4] = as above; assay type: binding, S. aureus; conditions: LTA; for Speed of insertion: initial surface pressure 30+/-0.5 mN/m; for Critical pressure of insertion πc: peptide 1 µg/mL
Procedure: Peptide–lipid interaction was measured using a lipid monolayer formed at the air:water interface with total lipid extracts and pure lipids. Total lipids were extracted from overnight cultures of MRSA or human erythrocytes using the Folch extraction procedure[14],[40]. Extracted total lipids were dried, re-solubilised in chloroform:methanol (2:1, v/v) and stored at −20 °C under nitrogen. Pure prokaryotic and eukaryotic lipids used were: cardiolipin, POPC (1-palmitoyl-2-oleoyl-glycero-3-phosphocholine), POPE (1-palmitoyl-2-oleoyl-sn-glycero-3-phosphoethanolamine) and POPG (1-palmitoyl-2-oleoyl-sn-glycero-3-phospho-(1’-rac-glycerol) (Avanti Polar Lipid). LTA (Lipoteichoic acid from S. aureus) and LPS (lipopolysaccharide from E. coli) (Invitrogen, UK) were also tested. Pure lipids were reconstituted in chloroform:methanol (2:1 v/v) at 1 mg/ml and stored at −20 °C under nitrogen. For peptide–lipid interaction assay, lipid monolayers at the air:water interface were formed by spreading total lipid extract or pure lipids at the surface of 800 µl of sterile PBS using a 50 µl Hamilton’s syringe. Lipids were added until the surface pressure reached the desired value. After 5–10 min of incubation allowing the evaporation of the solvent and stabilisation of the initial surface pressure, 8 µl of HG2 or HG4 diluted in sterile PBS at 100 µg/ml were injected into the 800 µl sub-phase of PBS under the lipid monolayer (pH 7.4, volume 800 µl) using a 10 µl Hamilton’s syringe giving a final concentration of peptide of 1 µg/ml, as preliminary experiments had shown that this concentration was optimal. The variation of the surface pressure caused by peptide insertion was then continuously monitored using a fully automated microtensiometer (µTROUGH SX, Kibron Inc, Finland) until it reached equilibrium (maximal surface pressure increase is usually obtained after 15–25 min). To reflect physiological situations, the initial surface pressure was fixed at 30 ± 0.5 mN/m in some experiments as this value corresponds to a lipid packing density theoretically equivalent to that of the outer leaflet of the eukaryotic and prokaryotic cell membrane. In other experiments, the critical pressure of insertion of HG2 or HG4 in the total lipid extracts and pure lipids was measured as follows[14],[56]. Briefly, in these experiments, the initial pressure of the lipid monolayer was set up at different values (between 10 and 30 mN/m) and the variation of pressure caused by the injection of the peptide was measured. […] All experiments were carried out in a controlled atmosphere at 20 ± 1 °C and data were analyzed using the Firmware 2.5 programme (Kibron Inc.). The accuracy of the system under our experimental conditions was determined to be ±0.25 mN/m for surface pressure measurements.

Row | Structure (SMILES) | EC50 of membrane permeabilisation [1] | permeabilisation at 1 min ([1]; at MIC concentration) | MIC (A. baumannii 515785) | MIC (A. baumannii 515908) | MIC (A. baumannii 515722) | MIC [2] | Speed of insertion [3] | Speed of insertion [4] | Critical pressure of insertion πc [4]
1 | CC[C@H](C)[C@H](NC(=O)[C@H](CC(C)C)NC(=O)[C@H](CC(C)C)NC(=O)[C@H](CC(C)C)NC(=O)[C@H](CCCCN)NC(=O)[C@H](CCCCN)NC(=O)[C@@H](N)CCSC)C(=O)N[C@@H](CC(C)C)C(=O)N[C@@H](Cc1ccccc1)C(=O)N[C@H]1CSSC[C@@H](C(=O)N[C@@H](CCCCN)C(=O)N[C@@H](CCCCN)C(=O)N[C@@H](C)C(=O)N2CCC[C@H]2C(N)=O)NC(=O)CNC(=O)[C@H](C)NC(=O)[C@H](CC(C)C)NC(=O)[C@H](C)NC(=O)[C@H](CC(C)C)NC(=O)[C@H](C)NC(=O)[C@H](CC(C)C)NC1=O [HG2] (H-MKKLLLILFCLALALAGCKKAP-NH2; disulfide 10-18; N-terminus assumed) | 1.351 ± 0.27 mg/L | 80% | 256 mg/L (≈ 109 µM) | 32 mg/L (≈ 13.6 µM) | 16 mg/L (≈ 6.79 µM) | 128 mg/L (≈ 54.3 µM) | 3.36 mN/m/10 sec | 0.80 mN/m/10 sec | 47.81 mN/m
2 | CC[C@H](C)[C@H](NC(=O)[C@H](CC(C)C)NC(=O)[C@H](CC(C)C)NC(=O)[C@H](C)NC(=O)CNC(=O)CNC(=O)[C@@H](NC(=O)[C@@H](NC(=O)[C@H](CC(C)C)NC(=O)[C@H](C)NC(=O)[C@H](CC(C)C)NC(=O)CNC(=O)[C@H](CC(C)C)NC(=O)[C@@H](N)C(C)C)[C@@H](C)CC)C(C)C)C(=O)N[C@@H](CCCCN)C(=O)N[C@@H](CCCCN)C(=O)N[C@@H](CCCCN)C(=O)N[C@@H](CCC(N)=O)C(=O)N[C@@H](C)C(=O)N[C@@H](CCCCN)C(=O)N[C@@H](CO)C(N)=O [HG4] (H-VLGLALIVGGALLIKKKQAKS-NH2; N-terminus and C-terminus assumed) | 13.85 ± 3.22 mg/L | – | 128 mg/L (≈ 60.4 µM) | 64 mg/L (≈ 30.2 µM) | 32 mg/L (≈ 15.1 µM) | 64 mg/L (≈ 30.2 µM) | 1.69 mN/m/10 sec | 0.39 mN/m/10 sec | 40.04 mN/m
